Source: US20040220149A1, “Nerve cell survival promoters containing cyclic phosphatidic acid derivative” (priority 2001, published 2004)

Key:
Assay type in all cases: cell-based
[1] = test system: primary cultured nerve cells derived from a hippocampus of a rat fetal brain; experiment: Influence of P13K inhibitors on the increase of nerve cell survival rate by cPA; details: 10 μM, nerve cell culture with cPA, 48 hours
Description: Wortmannin (made by Sigma) and LY294002 (made by Sigma), which are inhibitors against phosphatidyl inositol 3-kinase (P13K), were dissolved in DMSO at the concentration of 10 mM and 50 mM respectively, and diluted with PBS. Each of the solutions was added to the cell culture solution at the respective final concentrations of 30 nM and 10 μM. The inhibitors were added to the cell culture solution at 2 hours prior to the addition of cPA, to carry out pretreatment. The cells were photographed at 48 hours after the addition of cPA, and the survival of the cells was morphologically judged on judged on the photographs to calculate the survival rate.

[2] = test system: NIH-3T3, a mouse-derived fibroblast cell; experiment: Formation of actin stress fiber in NIH-3T3 by addition of lysophospholipids; details: 10 μM lipid, 37° C., 30 minutes, serum-starved NIH-3T3, Rhodamine phalloidin staining; control without lipid: no stress fiber
Description: (A-5) Formation of Stress Fiber in NIH-3T3 by Addition of Various Lysophospholipids
NIH-3T3, a mouse-derived fibroblast cell, was incubated in a Dulbecoo's Modified Eagle's Medium (DMEM) containing 10% fetal bovine serum (FBS; made by Moregate), and was used in the Experiment. 2.5×10^4 cells of the NIH-3T3 were inoculated in a petri dish (10 cm in diameter) paved with cover glasses of 22 mm in diameter, and the medium was replacing with a FBS-free medium after 24 hours, and the cells were incubated in a serum starvation state for 48 hours. 10 μM of the lysophospholipid was added, and the cells were incubated at 37° C. for 30 minutes for stimulation. Then, the cells were fixed in the Dalbecco's PBS containing 3.7% of paraformaldehyde and 0.1% of Triton X-100 at room temperature for 10 minutes. Thereafter, the cells were stained with 5 units/ml of rhodamine phalloidin (made by Funakoshi) at 37° C. for 1 hour. The cover glasses were washed with PBS thrice, and observation was carried out by a cofocus laser microscope TCS NT Control laser Scanning Microscope (made by Leica).
The product obtained by the A sp362-derived PLD reaction was studied with respect to its biochemical activity in order to confirm further that it was a compound which is identical to cPA. Namely, the activity of forming actin stress fiber in a fibroblast cell, one of the physiological acteivities of cPA, was studied. To NIH-3T3, i.e. a fibroblast cell line derived from mouse, in the subconfluent state in the serum starvation state, each 10 μM of LPA, a chemically synthesized PHYLPA, or cPA, i.e. the PLD reaction product was added at 37° C. for 30 minutes, and then actin stress fiber was stained with Rhodamine phalloidin, and observation was carried out.

[3] = test system: primary cultured nerve cells derived from a hippocampus of a rat fetal brain; experiment: Survival rate of primary cultured nerve cells derived from rat fetal hippocampus
Description: (§1) (A-1) Preparation and Culturing of the Primary Cultured Nerve Cells Derived From a Hippocampus of a Rat Fetal Brain
Sprague-Dowley rat with 16 days of pregnancy were used as material. The rat were anesthetized with ether, from which the fetal was taken out. The whole brain was taken out under a stereomicroscope, and a hippocampus inside the cerebral cortex was picked out. The picked out hippocampus was collected in a 15 ml centrifuging tube, and 0.5 ml of 2.5% trypsin and a culture solution was added to be a 5 ml solution. The mixture was incubated at 37° C. for 15 minutes and then centrifuged at 3,000 rpm for 15 minutes. The supernatant was removed, 5 ml of the culture solution was added, and the mixture was centrifuged at 3,000 rpm for 15 minutes. The procedure was additionally repeated twice. After adding 3-5 ml of the culture solution, the resultant was pipetted with a Pasteur pipette and then with an injection needle (TERUMO NEEDLE (0.70×38 mm); made by Terumo). The cells, which were finally dissociated through a cell strainer (FALCON Cell Strainer 70 μm; made by FALCON), were primarily cultured on a plate. A culture liquid and a method for coating a plate which allow the nerve cells to be cultured without aggregation, were studied. […]

[4] = test system: primary cultured nerve cells derived from a hippocampus of a rat fetal brain; experiment: Measurement of the elongation of neurites
Description: as §1
Sprague-Dowley rat with 16 days of pregnancy were used as material. The rat were anesthetized with ether, from which the fetal was taken out. The whole brain was taken out under a stereomicroscope, and a hippocampus inside the cerebral cortex was picked out. The picked out hippocampus was collected in a 15 ml centrifuging tube, and 0.5 ml of 2.5% trypsin and a culture solution was added to be a 5 ml solution. The mixture was incubated at 37° C. for 15 minutes and then centrifuged at 3,000 rpm for 15 minutes. The supernatant was removed, 5 ml of the culture solution was added, and the mixture was centrifuged at 3,000 rpm for 15 minutes. The procedure was additionally repeated twice. After adding 3-5 ml of the culture solution, the resultant was pipetted with a Pasteur pipette and then with an injection needle (TERUMO NEEDLE (0.70×38 mm); made by Terumo). The cells, which were finally dissociated through a cell strainer (FALCON Cell Strainer 70 μm; made by FALCON), were primarily cultured on a plate. A culture liquid and a method for coating a plate which allow the nerve cells to be cultured without aggregation, were studied.
(A-3) Measurement of the Elongation of Neurites
In order to study the influence of cPA on the elongation of neurites, the cells were primarily cultured according to the method as described in (A-1), and were photographed at 12, 18 and 24 hours after the start of the culture. The average length of neurites per cell and the number of cells having the neurite at respective time points were analyzed by an image analysis software (NIH Image 1.62).
5 μM of oleoyl cPA was added to the cell culture solution, and the cells were photographed after 24, 48, and 72 hours. The average length of neurites per cell was analyzed by the analysis with the image analysis software (NIH Image 1.62). […] The effect was strongest after 24 hours, as compared with those after 48 hours (1.5 times) and 72 hours (1.2 times) (FIG. 10(a)). Thus, it was considered that the evaluation of the action of cPA on the elongation of neurites at earlier time points was necessary, and the effect of cPA at various levels on the elongation of neurites was studied at 12, 18 and 24 hours after addition. As the result, at the time point after 12 hours, the elongation of neurites in the sample to which cPA of 1.0 μM was added became about 1.7 times that of the control, and gave the maximum value (FIG. 10(b)).

O=c1cc(N2CCOCC2)oc2c(-c3ccccc3)cccc12 [LY294002]
cytotoxicity (cell morphology) [1]: many cells were destroyed and deformed

CCCCCC[C@@H]1C[C@@H]1CCCCCCCC(=O)OC[C@@H]1COP(=O)(O)O1 [PHYLPA]
formation of actin stress fiber [2]: the formation of stress fibers was observed

CCCCCCCC/C=C\CCCCCCCC(=O)OCC1COP(=O)(O)O1 (stereo not shown) [oleoyl cPA, 1-oleoyl cyclic phosphatidic acid]
formation of actin stress fiber [2]: the formation of stress fibers was observed
survival of the cells compared with control without cPA addition ([3]; 5 μM, serum-free culture): the survival of the cells became better
cPA level most effective for the cell survival ([3]; 0.5, 1.0, 5.0 or 10.0 μM tested, cell density 3.0×10^5 cells/cm^2): 1.0 µM
ratio of cells having neurites ([4]; 1.0 μM, 24 hours after addition): high
elongation of neurites relative to control (maximum value) ([4]; 1.0 μM, after 12 hours): about 1.7 times
average length of neurites per cell relative to control ([4]; 5 μM, after 24 hours): twice longer than that of the control
average length of neurites per cell relative to control ([4]; 5 μM, after 48 hours): 1.5 times
average length of neurites per cell relative to control ([4]; 5 μM, after 72 hours): 1.2 times
elongation of neurites compared with control without cPA addition ([4]; 5 μM, serum-free culture): the elongation of neurites was also observed

lysophosphatidic acid [LPA]
formation of actin stress fiber [2]: the formation of stress fibers was observed

nerve growth factor [NGF]
elongation of neurites compared with that of 1.0 μM cPA (about 1.7 times control) ([4]; (optimal level), after 12 hours): comparable
